Counter-ions that a name gives are not always drawn.
Row | SMILES | melting point
1 | Cl.O=C(N[C@H](Cc1ccc(Cl)cc1)C(=O)N1CCC(c2ccccc2-n2cc[nH]c2=O)CC1)[C@@H]1Cc2ccccc2CN1 | 191 °C (dec.)
2 | CS(=O)(=O)N(CC1CC1)c1ccccc1C1CCN(C(=O)[C@@H](Cc2ccc(Cl)cc2)NC(=O)[C@@H]2Cc3ccccc3CN2)CC1 (as salt: HCl) (hydrate or solvate) [Example 11, N-[(1R)-1-[(4-Chlorophenyl)methyl]-2-(4-{2-[(cyclopropylmethyl)-(methylsulfonyl)amino]-phenyl}piperidyl)-2-oxoethyl]((3S)(3-1,2,3,4-tetrahydroisoquinolyl))carboxamide] | 190 to 200 °C
3 | CS(=O)(=O)Nc1ccccc1C1CCN(C(=O)[C@@H](Cc2ccc(Cl)c(Cl)c2)NC(=O)[C@@H]2Cc3ccccc3CN2)CC1 (as salt: HCl) [Example 10, ((3S)(3-1,2,3,4-Tetrahydroisoquinolyl))-N-[(1R)-1-[(3,4-dichlorophenyl)methyl]-2-(4-{2-[(methylsulfonyl)-amino]phenyl}piperidyl)-2-oxoethyl]carboxamide] | 181 °C (dec.)
4 | Cn1ccn(-c2ccccc2C2CCN(C(=O)[C@@H](Cc3ccc(Cl)cc3)NC(=O)[C@@H]3Cc4ccccc4CN3)CC2)c1=O (as salt: HCl) [Example 17, ((3S)(3-1,2,3,4-Tetrahydroisoquinolyl))-N-((1R)-1-[(4-chlorophenyl)methyl]-2-{4-[2-(3-methyl-2-oxo(4-imidazolinyl))phenyl]piperidyl}-2-oxoethyl)carboxamide] | 178 °C (dec.)

Reference: patent US6977264B2, “Substituted piperidines and methods of use” (Amgen Inc., priority 2001, dated 2005)
